Molecules are shown by their SMILES.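 Test compounds were applied to cells in 96-well plates for 48 hours at 5 doses. At the TGI there is no net growth.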

The results in this text go back to PubChem BioAssay (NCI).

Among the test systems are NCI-H226 lung; M14 melanoma; HL-60(TB) leukemia; OVCAR-8 ovarian; NCI-H522 lung; IGROV1 ovarian; CAKI-1 renal; RXF 393 renal; COLO 205 colon; SK-OV-3 ovarian; SK-MEL-5 melanoma; KM12 colon; UO-31 renal; SNB-75 CNS; HOP-92 NSCLC; OVCAR-5 ovarian.
What all share (test): growth of human tumour cells (NCI), 48 h

As to `CC(=O)C1Cn2c(=O)c3cc4ccccc4cc3c(=O)n2C=C1C` (stereo not given), the TGI with NCI-H226 lung, in the test on M14 melanoma, in the test with HL-60(TB) leukemia, in the test with OVCAR-8 ovarian, with NCI-H522 lung and in the test on IGROV1 ovarian was over 100 µM throughout. For the same molecule, the TGI with CAKI-1 renal, in the test with RXF 393 renal, in the test on COLO 205 colon, in the test on SK-OV-3 ovarian, with SK-MEL-5 melanoma and in the test on KM12 colon was over 100 µM in each case. Further, the TGI with UO-31 renal, with SNB-75 CNS, in the test with HOP-92 NSCLC and in the test with OVCAR-5 ovarian was over 100 µM in each case.

For `O=C(c1nc2ccccc2[nH]c1=O)C(O)c1ccco1` (stereo not given), the TGI in the test on NCI-H226 lung, with M14 melanoma, with HL-60(TB) leukemia, in the test with OVCAR-8 ovarian, with NCI-H522 lung and in the test with IGROV1 ovarian was over 100 µM each time. Also, the TGI with RXF 393 renal, with COLO 205 colon, with SK-OV-3 ovarian, in the test with SK-MEL-5 melanoma, with KM12 colon and with UO-31 renal was over 100 µM throughout. The TGI in the test on SNB-75 CNS, with HOP-92 NSCLC and with OVCAR-5 ovarian was over 100 µM each time.

As for `O=C1NC(=O)C(C(=O)C(=O)Nc2ccc(Cl)cc2Cl)C(=O)N1`, the TGI in the test on M14 melanoma, with HL-60(TB) leukemia, with OVCAR-8 ovarian, in the test on IGROV1 ovarian, in the test on CAKI-1 renal and in the test on COLO 205 colon was over 100 µM throughout. The TGI with SK-OV-3 ovarian, with SK-MEL-5 melanoma, with KM12 colon, in the test on UO-31 renal, in the test with HOP-92 NSCLC and with OVCAR-5 ovarian was over 100 µM each time.

For the molecule `O=C(Nc1cccc(C(F)(F)F)c1)C(=O)C1NC(=S)NC1=O` (stereo not given), the TGI with NCI-H226 lung, in the test on M14 melanoma, in the test with HL-60(TB) leukemia, in the test on OVCAR-8 ovarian, with IGROV1 ovarian and in the test on CAKI-1 renal was over 100 µM throughout. Besides, the TGI in the test with RXF 393 renal, with COLO 205 colon, in the test on SK-OV-3 ovarian, in the test with SK-MEL-5 melanoma, in the test with KM12 colon and in the test on UO-31 renal was over 100 µM throughout. Further, the TGI in the test on SNB-75 CNS, with HOP-92 NSCLC and with OVCAR-5 ovarian was over 100 µM each time.

Consider `O=c1c2ccccc2nc2n1-c1ccccc1SC2`, for which the TGI is over 100 µM in the test on M14 melanoma; over 100 µM in the test with OVCAR-8 ovarian; 70.8 µM with NCI-H522 lung; over 100 µM in the test on IGROV1 ovarian; over 100 µM with CAKI-1 renal; over 100 µM in the test with RXF 393 renal. Besides, the TGI in the test on COLO 205 colon is over 100 µM; with SK-OV-3 ovarian it was over 100 µM; in the test on SK-MEL-5 melanoma, 86.9 µM; with KM12 colon, over 100 µM; in the test on UO-31 renal, over 100 µM; in the test on SNB-75 CNS it was 56.2 µM. The TGI in the test on HOP-92 NSCLC and in the test on OVCAR-5 ovarian was over 100 µM each time.

On to `O=C1C=CC2(C=C1)CCNC1=C2C(=O)c2ccccc2C1=O`, for which the TGI in the test on NCI-H226 lung, in the test on M14 melanoma, with HL-60(TB) leukemia, in the test on OVCAR-8 ovarian, in the test with NCI-H522 lung and in the test on IGROV1 ovarian was over 100 µM each time. Besides, the TGI in the test on RXF 393 renal, in the test on COLO 205 colon, in the test on SK-OV-3 ovarian, in the test with SK-MEL-5 melanoma, in the test on KM12 colon and in the test on UO-31 renal was over 100 µM in each case. Also, the TGI in the test on SNB-75 CNS, with HOP-92 NSCLC and in the test with OVCAR-5 ovarian was over 100 µM each time.

As for `N#CC1=C(c2ccccc2)C(=C2Nc3ccccc3N2)C2S/C(=C\c3ccccc3)C(=O)N2C1=N` (stereo not given), the TGI is 3.73 µM in the test with NCI-H226 lung; 6.56 µM in the test on M14 melanoma; 6.53 µM with HL-60(TB) leukemia; 5.19 µM in the test with OVCAR-8 ovarian; 3.52 µM in the test on NCI-H522 lung; 4.71 µM with IGROV1 ovarian. Also, the TGI in the test with CAKI-1 renal was found to be 4.01 µM; with COLO 205 colon, 20.5 µM; in the test on SK-OV-3 ovarian it was 3.62 µM; in the test with SK-MEL-5 melanoma it was 3.3 µM; in the test with KM12 colon it was 15.1 µM; with UO-31 renal, 3.74 µM. The TGI in the test on SNB-75 CNS was 3.77 µM; with HOP-92 NSCLC, 2.67 µM; in the test with OVCAR-5 ovarian, 5.84 µM.

`NC(=O)/C(=N\NC(=O)C[n+]1ccccc1)C1NC(=O)NC1=O` (stereo not given): the TGI in the test on NCI-H226 lung, with M14 melanoma, with HL-60(TB) leukemia, in the test with OVCAR-8 ovarian, in the test with IGROV1 ovarian and in the test on CAKI-1 renal was over 100 µM each time. For the same molecule, the TGI in the test on RXF 393 renal, with COLO 205 colon, in the test with SK-OV-3 ovarian, with SK-MEL-5 melanoma, in the test on KM12 colon and in the test on UO-31 renal was over 100 µM each time. In addition, the TGI in the test with SNB-75 CNS, in the test on HOP-92 NSCLC and in the test on OVCAR-5 ovarian was over 100 µM throughout.

For the molecule `COc1cc(O)c2c(c1)O[C@@H]1OCC[C@H]21`, the TGI in the test with NCI-H226 lung, in the test with M14 melanoma, in the test on HL-60(TB) leukemia, in the test with OVCAR-8 ovarian, in the test with IGROV1 ovarian and in the test with COLO 205 colon was over 100 µM each time. For the same molecule, the TGI in the test with SK-OV-3 ovarian, in the test on SK-MEL-5 melanoma, in the test on KM12 colon, with UO-31 renal, with SNB-75 CNS and in the test on HOP-92 NSCLC was over 100 µM in each case. In the test with OVCAR-5 ovarian, this molecule registered a TGI of over 100 µM.
